In patent US10392389B2, “Heterocyclic compounds for the inhibition of PASK” (BioEnergenix, LLC, priority 2012, dated 2019):

Columns and labels:
[1] = target: T1, PASK (UniProt #Q96RG2; human recombinant N-terminal GST tagged construct, residues 879-1323) (Homo sapiens, UniProt Q96RG2); assay: PASK ATP Radiochemical Assay; type: biochemical; details: 33P-ATP, Myelin Basic Protein substrate, read-out: IC50 Kinase Domain
T1 construct: N-terminal GST tagged construct, residues 879-1323; GST (N); host or cells: insect cells
T1 sequence (Q96RG2 879-1323, stated change not applied): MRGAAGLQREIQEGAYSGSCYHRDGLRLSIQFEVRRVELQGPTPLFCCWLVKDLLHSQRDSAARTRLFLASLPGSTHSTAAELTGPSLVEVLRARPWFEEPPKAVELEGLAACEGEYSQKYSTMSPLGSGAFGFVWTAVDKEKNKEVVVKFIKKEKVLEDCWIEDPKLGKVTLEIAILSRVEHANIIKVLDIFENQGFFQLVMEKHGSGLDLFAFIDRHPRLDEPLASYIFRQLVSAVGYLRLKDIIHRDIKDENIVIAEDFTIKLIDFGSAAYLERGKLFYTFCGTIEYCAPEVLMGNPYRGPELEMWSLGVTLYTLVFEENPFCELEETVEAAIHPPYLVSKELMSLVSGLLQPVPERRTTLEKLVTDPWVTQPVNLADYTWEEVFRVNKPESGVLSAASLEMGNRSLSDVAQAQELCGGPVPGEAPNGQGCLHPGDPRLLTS
Protocol: Biochemical Assay for hPASK Activity
PASK ATP Radiochemical Assay
(§1) Purified PASK (UniProt #Q96RG2; human recombinant N-terminal GST tagged construct, residues 879-1323) from insect cells (final concentration 5 nM) is added to freshly prepared Base Reaction Buffer containing 20 mM HEPES (pH 7.5), 10 mM MgCl2, 1 mM EGTA, 0.02% Brij35, 0.02 mg/ml BSA, 0.1 mM Na3VO4, 2 mM DTT, 1% DMSO and Myelin Basic Protein (20 μM final). Test compounds in DMSO are then added and the mixture, followed by delivery of ^33P-ATP (specific activity 0.01 μCi/μl final) to initiate the reaction. The kinase reaction is incubated for 120 min at room temperature. The entire reaction mixture is washed through onto a P81 Phosphocellulose paper and washed three times for 10 minutes in 75 mM phosphoric acid and once in methanol prior to drying and scintillation counting.

[2] = target: T2, PASK (Invitrogen) (Homo sapiens, UniProt Q96RG2); assay: PAS Kinase FRET Assay; type: biochemical; details: PAS kinase TR-FRET assay (665 nm/615 nm); read-out: IC50 Kinase Domain
T2 construct: IC50 Kinase Domain; purchased Invitrogen
T2 sequence (Q96RG2 999-1251 limits assumed): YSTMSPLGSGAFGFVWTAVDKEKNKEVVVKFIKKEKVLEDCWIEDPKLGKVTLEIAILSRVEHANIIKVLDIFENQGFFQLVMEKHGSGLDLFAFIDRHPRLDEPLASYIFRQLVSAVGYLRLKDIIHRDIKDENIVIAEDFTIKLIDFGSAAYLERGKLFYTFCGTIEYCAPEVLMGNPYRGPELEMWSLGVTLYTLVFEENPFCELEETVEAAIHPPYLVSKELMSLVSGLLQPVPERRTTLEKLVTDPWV
In short: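 PASK phosphorylates a ULight-peptide with ATP in 50 mM HEPES, 10 mM MgCl2, 1 mM EGTA, 0.01% Tween-20, 2 mM DTT for 2 h at 25° C in the dark. Compounds are added as 4× serial dilutions (top 12×10^−5 M at 4×). After stopping, an Eu anti-phospho-substrate antibody is added for 1 h and TR-FRET is read at 665/615 nm.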

[3] = target: T3, CK2a2 (NP_001887; human full-length protein, GST tagged) (Homo sapiens, UniProt P19784); assay: Biochemical Assay for CK2 Activity; details: 33P-ATP radiochemical assay, CK2 sub [RRRDDDSDDD]
T3 construct: human full-length protein, GST tagged; GST; host or cells: insect cells
T3 sequence (P19784 whole entry): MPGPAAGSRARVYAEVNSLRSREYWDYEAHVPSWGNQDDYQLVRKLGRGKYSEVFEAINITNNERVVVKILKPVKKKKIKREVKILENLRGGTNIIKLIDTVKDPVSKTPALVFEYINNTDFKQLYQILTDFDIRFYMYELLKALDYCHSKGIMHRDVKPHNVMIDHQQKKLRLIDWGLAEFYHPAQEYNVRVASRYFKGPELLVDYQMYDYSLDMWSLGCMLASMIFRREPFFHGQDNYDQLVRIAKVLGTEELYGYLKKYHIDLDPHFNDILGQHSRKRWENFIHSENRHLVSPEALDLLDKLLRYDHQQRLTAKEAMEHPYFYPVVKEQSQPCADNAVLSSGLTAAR
Protocol: Biochemical Assay for CK2 Activity
as §1, with “Purified CK2a2 (NP_001887;” for “Purified PASK (UniProt #Q96RG2;”, “human full-length protein,” for “human recombinant N-terminal”, “GST tagged)” for “GST tagged construct, residues 879-1323)”, “concentration 1.2” for “concentration 5”, “mM Hepes” for “mM HEPES”, “and CK2 sub [RRRDDDSDDD]” for “and Myelin Basic Protein”

[4] = target: T4, PIM1 (NP_002639; human full-length protein, 6×His tagged) (Homo sapiens, UniProt P11309); assay: Biochemical Assay for PIM1 Activity; details: 33P-ATP radiochemical assay, S6K/Rsk2 peptide 2 substrate
T4 construct: human full-length protein, 6×His tagged; 6xHis; host or cells: insect cells
T4 sequence (P11309 whole entry): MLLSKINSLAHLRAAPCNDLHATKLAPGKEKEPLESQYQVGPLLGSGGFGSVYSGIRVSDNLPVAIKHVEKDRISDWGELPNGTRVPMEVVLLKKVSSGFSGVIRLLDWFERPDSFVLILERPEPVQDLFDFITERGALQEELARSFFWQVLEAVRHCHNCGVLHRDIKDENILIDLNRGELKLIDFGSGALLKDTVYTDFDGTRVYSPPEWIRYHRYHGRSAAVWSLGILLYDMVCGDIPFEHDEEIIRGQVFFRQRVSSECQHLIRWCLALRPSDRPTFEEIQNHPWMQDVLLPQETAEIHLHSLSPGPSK
Protocol: Biochemical Assay for PIM1 Activity
as §1, with “Purified PIM1 (NP_002639;” for “Purified PASK (UniProt #Q96RG2;”, “human full-length protein, 6×His tagged)” for “human recombinant N-terminal GST tagged construct, residues 879-1323)”, “concentration 1.0” for “concentration 5”, “mM Hepes” for “mM HEPES”, “and substrate S6K/Rsk2 peptide 2 [KKRNRTLTK]” for “and Myelin Basic Protein”, “activity 10” for “activity 0.01”

Row | Compound | IC50 [1] | IC50 [2] | IC50 [3] | IC50 [4]
1 | Cn1nccc1-c1cnn2c(=O)cc(-c3ccc(Cl)c(Cl)c3)[nH]c12 [Example 98, 5-(3,4-dichlorophenyl)-3-(1-methyl-1H-pyrazol-5-yl)pyrazolo[1,5-a]pyrimidin-7(4H)-one] | ≤ 10 µM | ≤ 10 µM | ≤ 10 µM | ≤ 10 µM
2 | Cc1cnc(-c2cnn3c(=O)cc(-c4ccc5[nH]ncc5c4)[nH]c23)o1 [Example 24, 5-(1H-indazol-5-yl)-3-(5-methyloxazol-2-yl)pyrazolo[1,5-a]pyrimidin-7(4H)-one] | ≤ 10 µM | ≤ 10 µM | ≤ 10 µM | ≤ 10 µM
3 | CCc1coc(-c2cnn3c(=O)cc(-c4ccc5[nH]nnc5c4)[nH]c23)n1 [Example 15, 5-(1H-1,2,3-benzotriazol-5-yl)-3-(4-ethyl-1,3-oxazol-2-yl)-4H,7H-pyrazolo[1,5-a]pyrimidin-7-one] | ≤ 10 µM | ≤ 10 µM | ≤ 10 µM | ≤ 10 µM
4 | CCOc1cc(-c2cc(=O)n3ncc(-c4nc(C)co4)c3[nH]2)ccc1Cl [Example 21, 5-(4-chloro-3-ethoxyphenyl)-3-(4-methyl-1,3-oxazol-2-yl)-4H,7H-pyrazolo[1,5-a]pyrimidin-7-one] | ≤ 10 µM | ≤ 10 µM | > 10 µM | ≤ 10 µM
5 | CCn1ncc2cc(-c3cc(=O)n4ncc(-c5noc6ccccc56)c4[nH]3)ccc21 [Example 59, 3-(benzo[d]isoxazol-3-yl)-5-(1-ethyl-1H-indazol-5-yl)pyrazolo[1,5-a]pyrimidin-7(4H)-one] | ≤ 10 µM | ≤ 10 µM | ≤ 10 µM | ≤ 10 µM
6 | COc1cc(-c2cc(=O)n3ncc(-c4ncco4)c3[nH]2)ccc1Cl [Example 19, 5-(4-chloro-3-methoxyphenyl)-3-(1,3-oxazol-2-yl)-4H,7H-pyrazolo[1,5-a]pyrimidin-7-one] | ≤ 10 µM | ≤ 10 µM | ≤ 10 µM | ≤ 10 µM
7 | COc1cc(-c2cc(=O)n3ncc(-c4nc(C)co4)c3[nH]2)ccc1Cl [Example 18, 5-(4-chloro-3-methoxyphenyl)-3-(4-methyl-1,3-oxazol-2-yl)-4H,7H-pyrazolo[1,5-a]pyrimidin-7-one] | ≤ 10 µM | ≤ 10 µM | ≤ 10 µM | ≤ 10 µM
8 | Cn1ncc2cc(-c3cc(=O)n4ncc(-c5cc[nH]n5)c4[nH]3)ccc21 [Example 71, 5-(1-methyl-1H-indazol-5-yl)-3-(1H-pyrazol-3-yl)-4H,7H-pyrazolo[1,5-a]pyrimidin-7-one] | ≤ 10 µM | ≤ 10 µM | ≤ 10 µM | ≤ 10 µM
9 | Cc1noc(-c2cnn3c(=O)cc(-c4ccc5c(cnn5C)c4)[nH]c23)n1 [Example 74, 3-(3-methyl-1,2,4-oxadiazol-5-yl)-5-(1-methyl-1H-indazol-5-yl)-4H,7H-pyrazolo[1,5-a]pyrimidin-7-one] | ≤ 10 µM | ≤ 10 µM | ≤ 10 µM | ≤ 10 µM
10 | CCn1nccc1-c1cnn2c(=O)cc(-c3ccc(Cl)c(OC)c3)[nH]c12 [Example 65, 5-(4-chloro-3-methoxyphenyl)-3-(1-ethyl-1H-pyrazol-5-yl)pyrazolo[1,5-a]pyrimidin-7(4H)-one] | ≤ 10 µM | ≤ 10 µM | ≤ 10 µM | ≤ 10 µM
11 | Cc1cnc(-c2cnn3c(=O)cc(-c4ccc5onc(C)c5c4)[nH]c23)o1 [Example 91, 5-(3-methylbenzo[d]isoxazol-5-yl)-3-(5-methyloxazol-2-yl)pyrazolo[1,5-a]pyrimidin-7(4H)-one] | ≤ 10 µM | ≤ 10 µM | ≤ 10 µM | ≤ 10 µM
12 | Cc1nn2c(=O)cc(-c3ccc4c(c3)OCO4)[nH]c2c1-c1ncco1 [Example 2, 5-(2H-1,3-benzodioxol-5-yl)-2-methyl-3-(1,3-oxazol-2-yl)-4H,7H-pyrazolo[1,5-a]pyrimidin-7-one] | ≤ 10 µM | ≤ 10 µM | ≤ 10 µM | ≤ 10 µM
13 | O=c1cc(-c2ccc3[nH]ncc3c2)[nH]c2c(-c3ncco3)cnn12 [Example 23, 5-(1H-indazol-5-yl)-3-(oxazol-2-yl)pyrazolo[1,5-a]pyrimidin-7(4H)-one] | ≤ 10 µM | ≤ 10 µM | ≤ 10 µM | ≤ 10 µM
14 | CCn1nccc1-c1cnn2c(=O)cc(-c3ccc(Cl)cc3)[nH]c12 [Example 66, 5-(4-chlorophenyl)-3-(1-ethyl-1H-pyrazol-5-yl)pyrazolo[1,5-a]pyrimidin-7(4H)-one] | ≤ 10 µM | ≤ 10 µM | ≤ 10 µM | ≤ 10 µM
15 | CCn1ncc2cc(-c3cc(=O)n4ncc(-c5n[nH]cc5C)c4[nH]3)ccc21 [Example 84, 5-(1-ethyl-1H-indazol-5-yl)-3-(4-methyl-1H-pyrazol-3-yl)-4H,7H-pyrazolo[1,5-a]pyrimidin-7-one] | ≤ 10 µM | ≤ 10 µM | ≤ 10 µM | ≤ 10 µM
16 | COc1cc(-c2cc(=O)n3ncc(-c4ccn(C)n4)c3[nH]2)ccc1Cl [Example 54, 5-(4-chloro-3-methoxyphenyl)-3-(1-methyl-1H-pyrazol-3-yl)pyrazolo[1,5-a]pyrimidin-7(4H)-one] | ≤ 10 µM | ≤ 10 µM | ≤ 10 µM | ≤ 10 µM
17 | Cc1noc(-c2cnn3c(=O)cc(-c4ccc(Cl)c(Cl)c4)[nH]c23)n1 [Example 100, 5-(3,4-dichlorophenyl)-3-(3-methyl-1,2,4-oxadiazol-5-yl)-4H,7H-pyrazolo[1,5-a]pyrimidin-7-one] | ≤ 10 µM | ≤ 10 µM | ≤ 10 µM | ≤ 10 µM
18 | CCn1ncc2cc(-c3cc(=O)n4ncc(-c5c(C)cnn5C)c4[nH]3)ccc21 [Example 85, 3-(1,4-dimethyl-1H-pyrazol-5-yl)-5-(1-ethyl-1H-indazol-5-yl)-4H,7H-pyrazolo[1,5-a]pyrimidin-7-one] | ≤ 10 µM | ≤ 10 µM | ≤ 10 µM | ≤ 10 µM
19 | CCn1ncc2cc(-c3cc(=O)n4ncc(-c5cc(C)n[nH]5)c4[nH]3)ccc21 [Example 68, 5-(1-ethyl-1H-indazol-5-yl)-3-(3-methyl-1H-pyrazol-5-yl)pyrazolo[1,5-a]pyrimidin-7(4H)-one] | ≤ 10 µM | – | ≤ 10 µM | ≤ 10 µM
20 | CCn1ncc2cc(-c3cc(=O)n4ncc(-c5ncc(-c6ccccc6)o5)c4[nH]3)ccc21 [Example 64, 5-(1-ethyl-1H-indazol-5-yl)-3-(5-phenyloxazol-2-yl)pyrazolo[1,5-a]pyrimidin-7(4H)-one] | ≤ 10 µM | ≤ 10 µM | ≤ 10 µM | ≤ 10 µM
21 | COc1cc(-c2cc(=O)n3ncc(-c4ccnn4C)c3[nH]2)ccc1F [Example 79, 5-(4-fluoro-3-methoxyphenyl)-3-(1-methyl-1H-pyrazol-5-yl)pyrazolo[1,5-a]pyrimidin-7(4H)-one] | ≤ 10 µM | ≤ 10 µM | ≤ 10 µM | ≤ 10 µM
22 | CCn1nccc1-c1cnn2c(=O)cc(-c3ccc4c(cnn4C)c3)[nH]c12 [Example 93, 3-(1-ethyl-1H-pyrazol-5-yl)-5-(1-methyl-1H-indazol-5-yl)pyrazolo[1,5-a]pyrimidin-7(4H)-one] | ≤ 10 µM | ≤ 10 µM | ≤ 10 µM | ≤ 10 µM
